In patent US9132136B2, “Pharmaceutical combination” (HOFFMANN-LA ROCHE INC., priority 2010, dated 2015):
“Also recorded” adds a separate entry of the source. Counter-ions that a name gives are not always drawn. Like-named read-outs stand apart in the source and are kept apart here.

What was measured:
[1] = Oral glucose tolerance test (oGTT) in male C57Bl6 mice; type: in vivo, male C57BL/6J mice
Procedure: An oral glucose tolerance test (oGTT) was performed in C57Bl6 mice to address potential anti-diabetic effects of TAAR1 agonists. Male C57BL/6J mice (Charles River Laboratories, Lyon, France) were stratified into groups of 8 mice according to body weight. The evening before the animals received 1 g food, this corresponds to a fasting period of about 10 hours. At the experiment day the animals were treated with TAAR1 agonists or placebo (0.3% Tween 80) 45 minutes prior to an oral glucose challenge of 2 g/kg. The main readout was blood glucose measured with Accu-Chek Aviva. In parallel blood samples were taken for insulin determination.

mouse TAAR1 = target: T1, mouse TAAR1 (Mus musculus, UniProt Q923Y8); assay: In vitro functional activity (cAMP assay) at mouse TAAR1 receptor in recombinant HEK293 cells; type: cell-based; conditions: for Emax: HEK293, relative to phenylethylamine having 100% agonistic activity, read-out: % efficacy
T1 construct: expressed in transfected cells
T1 sequence (Q923Y8 whole entry): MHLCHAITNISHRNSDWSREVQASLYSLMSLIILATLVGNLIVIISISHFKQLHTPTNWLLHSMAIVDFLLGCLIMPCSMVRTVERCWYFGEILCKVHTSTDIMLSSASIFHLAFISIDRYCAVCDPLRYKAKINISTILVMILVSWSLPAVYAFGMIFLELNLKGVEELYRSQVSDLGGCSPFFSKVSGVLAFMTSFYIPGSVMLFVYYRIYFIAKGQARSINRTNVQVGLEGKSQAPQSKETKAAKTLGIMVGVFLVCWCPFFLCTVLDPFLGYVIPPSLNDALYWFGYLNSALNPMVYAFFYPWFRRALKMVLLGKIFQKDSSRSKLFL
Procedure: In Vitro Functional Activity of TAAR1 Agonists at Mouse TAAR1 Receptor
Recombinant HEK293 cells expressing the mouse TAAR1 were grown at 37° C. and 5% CO2/95% air in 250 ml Falcon culture flasks in 30 ml culture medium. The cell culture medium contained DMEM high glucose, fetal calf serum (10%, heat inactivated for 30 min at 56° C.), geneticin G418 (500 μg/ml), and penicillin/streptomycin (1%). Cells were harvested when 80-90% confluent. Then culture medium was then removed from the culture flasks, cells washed once with 5 ml of PBS. After removing the wash solution, 5 ml of trypsin/EDTA solution were added for 5 min at 37° C. Afterwards, 45 ml of culture medium was added to the 5 ml detached cell solution and the total 50 ml transferred into a 50 ml Falcon tube (ref: 2070), the tube was centrifuged at 1300 rpm for 3 min at RT and the culture medium removed. The cell pellet was resuspended in fresh culture medium and brought to 5×10 E5 cells per milliliter. Then the cells were plated in 96-well Plate (BIOCOAT 6640 from Becton Dickinson) with a multipipette (100 μl/well, 50 000 cells/well) and incubated 20 h at 37° C.
The cell culture medium was removed and the cells washed once with PBS. 50 μl of PBS (AMIMED Endotoxine free: 8-05F00-1) with 1 mM IBMX were added and the cells allowed to incubate for 30 min at 37° C. and 5% CO2/95% air. Then 50 μl of a (e.g.) 20 μM compound solution or 50 μl of a 50% beta-PEA stimulation concentration in PBS (AMIMED Endotoxine free) with 1 mM IBMX were added and the cells incubated for 30 min at 37° C. as above again. After the incubation the cells were lysed with 50 μl of the 3× Detection Mix solution containing Ru-cAMP, Alexa700-cAMP Ab and lysis buffer for at least 60 min (better 2 h) at RT under strong shaking. The fluorescence is measured on the NanoScan (10M reader) (Ex. 456 nm, Em. 630 & 700 nm).
Efficacy values (% eff.) are relative to phenylethylamine having 100% agonistic activity.

[2] = test system: cocaine-induced hyperlocomotor activity in mice; assay: Cocaine-induced locomotion test in mice; type: in vivo
[3] = test system: L-687414-induced hyperlocomotion in mice; assay: L-687414-induced locomotion test in mice; type: in vivo
[4] = 14-day treatment in rats: body weight gain, fat mass (MR relaxometry), food intake
From the text: Along with body weight measurement, magnetic resonance (MR) relaxometry was employed to determine, in a noninvasive manner, fat mass composition in the animals.

[5] = paediatric patients, cited from earlier work
[6] = 10 and 30 mg/kg p.o., vs vehicle
[7] = HEK293 cells expressing mouse TAAR1, cAMP assay, read-out: EC50
[8] = 0.1 and 0.3 mg/kg p.o., vs vehicle
[9] = 0.3 and 1 mg/kg p.o., vs vehicle
[10] = 14 days, 1 mg/kg p.o., vs vehicle
[11] = 14 days, 3 and 10 mg/kg p.o., vs vehicle
[12] = 14 days, olanzapine 2 mg/kg p.o.

In the case of O=C(Nc1ccc(C2CCNC2)cc1)c1ccc(Cl)cc1 (racemic) [Example S6, (RS)-4-Chloro-N-(4-pyrrolidin-3-yl-phenyl)-benzamide hydrochloride], the “glucose AUC (0-60 min) during oGTT” value [1, 6] is reported as “markedly lowered”, the Emax (mouse TAAR1) is reported as 78% and the EC50 (mouse TAAR1; [7]) is reported as 1.4 nM.

With O=C(Nc1ccc(C2CCNC2)cc1)Nc1ccc(Cl)cn1 (racemic) [Example S7, (RS)-1-(5-Chloro-pyridin-2-yl)-3-(4-pyrrolidin-3-yl-phenyl)-urea hydrochloride] the “glucose AUC (0-60 min) during oGTT” value ([1]; 10 mg/kg p.o., vs vehicle) was “markedly lowered”, the Emax (mouse TAAR1) was 57% and the EC50 (mouse TAAR1; [7]) was 0.8 nM.

In the case of O=C(Nc1ccc(C2CCNC2)cc1)c1ccc(Cl)cn1 (racemic) [Example S8, (RS)-5-Chloro-pyridine-2-carboxylic acid (4-pyrrolidin-3-yl-phenyl)-amide hydrochloride], the “glucose AUC (0-60 min) during oGTT” value [1, 6] is reported as “markedly lowered”, the Emax (mouse TAAR1) is reported as 65% and the EC50 (mouse TAAR1; [7]) is reported as 7.4 nM.

For CC[C@@H](C[C@H]1COC(N)=N1)c1ccccc1 [Example S1, (S)-4-((S)-2-Phenyl-butyl)-4,5-dihydro-oxazol-2-ylamine], the fasting glucose levels [1] was “No effect”, the “glucose AUC (0-60 min) during oGTT (blood glucose excursion)” value [1, 8] was “significantly lowered; also recorded: markedly lowered” and the “insulin AUC (0-60 min) during oGTT (insulin excursion)” value [1, 8] was “significantly lower; also recorded: markedly lowered”. For the same molecule, the cocaine-induced hyperlocomotor activity ([2]; tested alone, 0.1 mg/kg p.o.) was “partially antagonized”, the Emax (mouse TAAR1) was 90% and the EC50 (mouse TAAR1; [7]) was 2 nM.

With Cc1c(F)cccc1[C@H]1COC(N)=N1 [Example S2, (S)-4-(3-fluoro-2-methyl-phenyl)-4,5-dihydro-oxazol-2-ylamine] the L-687414-induced hyperlocomotion ([3]; acute, 0.00003-1 mg/kg p.o.) was “dose-dependently antagonized; also recorded: fully antagonized”, the L-687414-induced locomotor activity ([3]; alone, 0.001 mg/kg p.o.) was “partially active” and the “glucose AUC (0-60 min) during oGTT” value [1, 9] was “markedly lowered”. For the same molecule, the “insulin AUC (0-60 min) during oGTT” value [1, 9] was “markedly lowered”, the fat mass [4, 10] was “No significant effect” and the food intake [4, 10] was “No significant effect”. For the same molecule, the weight gain ([4]; 14 days, 1 mg/kg p.o., vs vehicle, 1 mg/kg) was “No significant effect and not”, the food intake ([4]; 14 days, 10 mg/kg) was “significant reduction” and the “weight loss compared to pre-treatment values” ([4]; 14 days, 3 and 10 mg/kg p.o.) was “without inducing weight loss”. The fat mass [4, 11] was “reduced”, the food intake [4, 11] was “reduced” and the weight gain [4, 11] was “reduced”. The “Cumulative food intake ± SEM” value ([4]; Study 1, 3 mg/kg) was 233.8 ± 7.4 g, the “Cumulative food intake ± SEM” value ([4]; Study 1, 10 mg/kg) was 217.0 ± 7.3 g and the “Cumulative food intake ± SEM” value ([4]; Study 2, 1 mg/kg) was 248.8 ± 5.0 g. The cocaine-induced hyperlocomotor activity ([2]; 1 and 3 mg/kg p.o.) was “significantly antagonized”, the “effects on baseline locomotor activity” value ([2]; doses that antagonized cocaine (1 and 3 mg/kg p.o.)) was “modest effects” and the cocaine-induced hyperlocomotor activity ([2]; tested alone, 0.3 mg/kg p.o., 0.3 mg/kg) was “partially active; also recorded: partially antagonized”. For the same molecule, the Emax (mouse TAAR1) was 65% and the EC50 (mouse TAAR1; [7]) was 1.8 nM.

For NC1=N[C@@H](c2ccc(Cl)cc2C(F)(F)F)CO1 [Example S3, (+)-(S)-4-(4-Chloro-2-trifluoromethyl-phenyl)-4,5-dihydro-oxazol-2-ylamine], the “glucose AUC (0-60 min) during oGTT” value ([1]; 1 and 3 mg/kg p.o., vs vehicle) was “markedly lowered”, the “insulin AUC (0-60 min) during oGTT” value ([1]; 1 and 3 mg/kg p.o., vs vehicle) was “markedly lowered” and the EC50 (mouse TAAR1) was 1.3 nM. The Emax (mouse TAAR1) was 67%.

In the case of CCN(C[C@H]1COC(N)=N1)c1ccccc1 [Example S4, (S)-4-[(Ethyl-phenyl-amino)-methyl]-4,5-dihydro-oxazol-2-ylamine], the “glucose AUC (0-60 min) during oGTT” value ([1]; 0.3 mg/kg p.o., vs vehicle) is reported as “markedly lowered”, the “insulin AUC (0-60 min) during oGTT” value ([1]; 0.3 mg/kg p.o., vs vehicle) is reported as “markedly lowered” and the Emax (mouse TAAR1) is reported as 65%. For the same molecule, the EC50 (mouse TAAR1; [7]) was 3.3 nM.

For CC[C@@H](C[C@H]1COC(N)=N1)Oc1cccc(O)c1 [Example S5, 3-[(S)-1-((S)-2-Amino-4,5-dihydro-oxazol-4-ylmethyl)-propoxy]-phenol], the “glucose AUC (0-60 min) during oGTT” value ([1]; 30 mg/kg p.o., vs vehicle) was “markedly lowered”, the Emax (mouse TAAR1) was 51% and the EC50 (mouse TAAR1; [7]) was 1.6 nM.

For C[C@H](OC[C@H]1COC(N)=N1)c1ccc(F)cc1 [Example S9, (S)-4-[(S)-1-(4-Fluoro-phenyl)-ethoxymethyl]-4,5-dihydro-oxazol-2-ylamine], the “glucose AUC (0-60 min) during oGTT” value ([1]; 10 mg/kg p.o., vs vehicle) was “markedly lowered”, the Emax (mouse TAAR1) was 99% and the EC50 (mouse TAAR1; [7]) was 1.7 nM.

For NC1=N[C@@H](CCc2ccc(NC(=O)c3ncc(Cl)cn3)cc2)CO1 [Example S10, 5-Chloro-pyrimidine-2-carboxylic acid {4-[2-((S)-2-amino-4,5-dihydro-oxazol-4-yl)-ethyl]-phenyl}-amide], the “glucose AUC (0-60 min) during oGTT” value ([1]; 10 mg/kg p.o., vs vehicle) was “markedly lowered”, the Emax (mouse TAAR1) was 32% and the EC50 (mouse TAAR1; [7]) was 1.6 nM.

For NC1=N[C@@H](CCc2ccc(NC(=O)c3ccc(Cl)cc3)cc2)CO1 [Example S11, N-{4-[2-((S)-2-Amino-4,5-dihydro-oxazol-4-yl)-ethyl]-phenyl}-4-chloro-benzamide], the “glucose AUC (0-60 min) during oGTT” value ([1]; 1 and 3 mg/kg p.o., vs vehicle) was “markedly lowered”, the Emax (mouse TAAR1) was 45% and the EC50 (mouse TAAR1; [7]) was 0.1 nM.

In the case of Cc1cc(C(=O)Nc2ccc([C@@H]3CNCCO3)cc2)cc(Cl)n1 [Example S12, (R)-2-Chloro-6-methyl-N-(4-(morpholin-2-yl)phenyl)isonicotinamide hydrochloride], the “glucose AUC (0-60 min) during oGTT” value ([1]; 3 mg/kg p.o., vs vehicle) is reported as “markedly lowered”, the Emax (mouse TAAR1) is reported as 69% and the EC50 (mouse TAAR1; [7]) is reported as 3.1 nM.

For O=C(Nc1ccc([C@H]2CNCCO2)cc1)c1ccc(OCC(F)(F)F)nc1 [Example S13, (S)—N-(4-(Morpholin-2-yl)phenyl)-6-(2,2,2-trifluoroethoxy)nicotinamide hydrochloride], the “glucose AUC (0-60 min) during oGTT” value ([1]; 3 mg/kg p.o., vs vehicle) was “markedly lowered”, the Emax (mouse TAAR1) was 54% and the EC50 (mouse TAAR1; [7]) was 1.6 nM.

With O=C(Nc1ccc([C@H]2CNCCO2)cc1)c1ccnc(C(F)(F)F)c1 [Example S14, (S)—N-(4-(Morpholin-2-yl)phenyl)-2-(trifluoromethyl)isonicotinamide hydrochloride] the “glucose AUC (0-60 min) during oGTT” value ([1]; 1 mg/kg p.o., vs vehicle) was “markedly lowered”, the Emax (mouse TAAR1) was 55% and the EC50 (mouse TAAR1; [7]) was 4.6 nM.

For O=C(NCc1ccc(F)cc1)Nc1ccc([C@H]2CNCCO2)cc1 [Example S15, (S)-1-(4-Fluorobenzyl)-3-(4-(morpholin-2-yl)phenyl)urea hydrochloride], the “glucose AUC (0-60 min) during oGTT” value ([1]; 1 mg/kg p.o., vs vehicle) was “markedly lowered”, the Emax (mouse TAAR1) was 40% and the EC50 (mouse TAAR1; [7]) was 0.6 nM.

With N#Cc1cccc(NC(=O)Nc2ccc([C@H]3CNCCO3)cc2)c1 [Example S16, (S)-1-(3-Cyanophenyl)-3-(4-(morpholin-2-yl)phenyl)urea hydrochloride] the “glucose AUC (0-60 min) during oGTT” value ([1]; 1 mg/kg p.o., vs vehicle) was “markedly lowered”, the Emax (mouse TAAR1) was 60% and the EC50 (mouse TAAR1; [7]) was 0.4 nM.

With O=C(Nc1ccc([C@H]2CNCCO2)cc1)c1ccc(Cl)nc1 [Example S17, (S)-6-Chloro-N-(4-(morpholin-2-yl)phenyl)nicotinamide hydrochloride] the “glucose AUC (0-60 min) during oGTT” value [1, 9] was “markedly lowered”, the Emax (mouse TAAR1) was 39% and the EC50 (mouse TAAR1; [7]) was 1.8 nM.

In the case of O=C1CCc2ccc(OCCCCN3CCN(c4cccc(Cl)c4Cl)CC3)cc2N1 [aripiprazole], the “adverse metabolic baseline-to-endpoint changes (total cholesterol, triglycerides, non-HDL cholesterol, ratio of triglycerides to HDL cholesterol)” value ([5]; study period) is given as “not significant”.

In the case of Cc1cc2c(s1)Nc1ccccc1N=C2N1CCN(C)CC1 [olanzapine, reference compound], the “incidence rates of hyperglycaemia and the metabolic syndrome” value [5] is listed as “highest incidence rates”, the food intake [4, 12] is listed as “increase” and the weight gain [4, 12] is listed as “increase”. The “Cumulative food intake ± SEM” value ([4]; Study 2, olanzapine 2 mg/kg) was 301.6 ± 8.6 g.

For OCCOCCN1CCN(C2=Nc3ccccc3Sc3ccccc32)CC1 [quetiapine], the “incidence rates of hyperglycaemia and the metabolic syndrome” value [5] is given as “modestly higher incidence rates” and the “adverse metabolic baseline-to-endpoint changes (total cholesterol, triglycerides, non-HDL cholesterol, ratio of triglycerides to HDL cholesterol)” value ([5]; study period) is given as “reached statistical significance”.

In the case of Cc1nc2n(c(=O)c1CCN1CCC(c3noc4cc(F)ccc34)CC1)CCCC2 [risperidone], the levels of triglycerides ([5]; study period) is listed as “increased significantly”.
